Measured values: US7790461B2, “Nano-emulsion technology for drug elution” (Medtronic MiniMed, Inc., priority 2007, dated 2010)

Tests used:
[1] = Stability of drug in elution media; type: physicochemical; conditions: length of the study
Procedure: The mobile phase preparation and choice of the column were instructed in the Dexamethasone Acetate monograph USP29-NF24. The mobile phase A consisted of pH 4.1 formate buffer and acetonitrile (3:2), and mobile phase B consisted of pH 4.1 formate buffer and acetonitrile (9:1). The chromatographic column (USP L11) used was an Agilent Zorbax SB-Phenyl, 4.6 mm×250 mm, 5 μm. A gradient was used with 1 mL/min flow rate. The run time was about 70 minutes. […] The injection volume for standard and samples was 100 μL.

[2] = 0.022 mg/mL
Procedure: To evaluate buffers with different pH, eleven milligrams of Dexamethasone Acetate was dissolved in 500 mL of media (different pH adjusted buffers).

- stability in the media [1]: stable
- stability with respect to pH (order) [2]: pH 3>pH 5≅acetate pH 5.7>water>pH 7>pH 9
Compound: CC(=O)OCC(=O)[C@@]1(O)[C@H](C)C[C@H]2[C@@H]3CCC4=CC(=O)C=C[C@]4(C)[C@@]3(F)[C@@H](O)C[C@@]21C [Dexamethasone Acetate]
